Source: patent publication US6121241A, “Anticoagulant peptide aldehyde derivatives” (Gyogyszerkutato Intezet Kft., priority 1996, dated 2000)
Read-outs that look alike come from different tables or passages of the source.

Columns and labels:
thrombin = molecular target: T1, thrombin (Homo sapiens, UniProt P00734); assay: Thrombin time (TT) plasma clotting test; format: biochemical
T1 construct: The isolated active factor (e.g. thrombin, fXa) and its chromogen or fluorogen peptide-amide substrate are reacted
Experimental: Anticoagutant activity (i.e. inhibition of the proteolytic reactions in the process) is measured by anticoagulant tests, e.g. by the thrombin time (TT), activated partial thromboplastin time (APTT) and prothrombin time (PT) tests [E. J. W. Bovie et al; Mayo Clinic Laboratory Manual of Hemostasis; W. B. Sanuders Co., Philadelphia (1971)]. Plasma, inhibited in spontaneous coagulation, e.g. citrate-plasma, is made to coagulate and the required coagulation time is measured. Upon the action of anticoagulants the coagulation time is prolonged proportionally to the inhibition of the reaction(s) in the process. The anticoagulant effect can be characterized by the substance concentration required to double the coagulation time compared to the control (IC50). The effect of anticoagulants on individual coagulant proteases is measured by the amidolytic method [R. Lottenberg et al., Methods in Enzymol. 80, 341 (1981); G. Cleason, Blood Coagulation and Fibrinolysis 5, 411 (1994)]. The isolated active factor (e.g. thrombin, fXa) and its chromogen or fluorogen peptide-amide substrate are reacted in the presence or absence of the inhibitor, resp. The enzyme inhibiting action is characterized by the inhibitory constant (IC50) measured during amidolysis.
In the TT test coagulation is initiated by the thrombin added to the citrate plasma. In the system 22 pmol/mL of thrombin is functioning and in the presence of plasma components its inhibition can be measured on the fibrinogen (one of the natural substrates of thrombin) present In the APTT and PT tests the full coagulation process is made to proceed. Depending on the activator fX is activated by the extrinsic or intrinsic pathway. The generated fXa activates prothrombin to thrombin which, in turn, triggers plasma coagulation. In the test the coagulation time is prolonged if the enzymes or one of them is inhibited by the inhibitor. In the APTT and PT tests at most 40 pmole/ml Xa is generated (this is the full amount of factor X present in both systems) while 150 pmole/ml (APTT) and 350 pmole/ml (PT) are generated from thrombin [B Kaiser et al., Thromb. Res. 65, 157 (1992)].
The in vitro anticoagulant effect of the compounds of general formula (I) was measured by the prothrombin time (PT), activated partial thromboplastin time (APTT) and thrombin time (TT) tests [D. Bagdy et at., Thromb. Haemost. 67, 325 (1992)]. The Xa-factor-inhibiting effect of the compounds was also determined by using the Bz-Ile-Glu-Gly-Arg-pNA chromogen substrate (see method M6).

[1] = molecular target: T2, plasma clot entrapped thrombin (Homo sapiens, UniProt P00734); assay: Inhibition of thrombin entrapped in plasma clot (methods M1, M3); format: biochemical; conditions: platelet-rich human plasma clot; Tos-Gly-Pro-Arg-pNA substrate
T2 construct: Here prothrombin is converted to thrombin; from tissue; host or cells: clot of recalcified platelet-rich human citrate plasma
Experimental: The plasma clot was obtained by the recalcification of platelet-rich human citrate plasma and fibrin gel by the coagulation of human fibrinogen with human thrombin Z-D-Arg-Gly-Arg-pNA and Tos Gly-Pro-Arg-pNA were used as substrates for measuring the activity of factor Xa and thrombin (methods M1-M5).
Preparation of Plasma Clot
a) Platelet-rich plasma (PRP) is prepared by centrifuging a 9:1 mixture of human blood and 3.8% aqueous sodium citrate solution (1/2) for 5 minutes at 240×g.
b) 200 μL of PRP are placed in each reaction vessel, 80 μL of 40 mM calcium chloride solution is added and the mixture is left to stand at room temperature for one hour. The plasma clot formed is rinsed mildly with 6×2 ml of 0.9% sodium chloride solution followed by 5 minute sedimentation to remove the dissolved enzymes (factor Xa and thrombin). The thrombin content of the washings is assayed as follows.
c) To 400 μL of washing liquid 100 μL of 1 mM Tos-Gly-Pro-Arg-pNA substrate solution is added and the mixture is incubated for 30 minutes at 37° C., then the reaction is stopped by the addition of 100 μL of 50% acetic acid. 150 μL portions of this mixture are transferred into the wells of the 96-well microtiter plate and the extinction is measured at 405 nm (ELISA READER SLT Laborinstrument GmbH, Austria). When the washing is successful, the extinction is less than 5% of the control
Assay of the Inhibition of Thrombin Entrapped in Plasma Clot
a) Peptide inhibitor solutions are prepared by the process described in Method M2, point a).
b) After draining the washing liquid, 400 μL of the peptide solution (3 parallel samples for each concentration) and 400 μL of buffer, serving as control, are placed on the clot (Method M1) and the mixture is incubated for 5 minutes at 37° C. Thereafter 100 μL of […] Tos-Gly-Pro-Arg-pNA substrate solution is added and incubation at 37° C. is continued for further 30 minutes, then the reaction is stopped by the addition of 100 μL of 50% acetic acid. The operation is continued as described in Method M2, point c).

[2] = tested on: whole blood clotting time (WBCT); assay: Ex vivo whole blood clotting time (WBCT) in rabbits after p.o. dosing; design: species or system New Zealand white rabbits; conditions: p.o. 5 mg/kg
Experimental: The anticoagulant and platelet aggregation inhibiting effect of the compounds of general formula (I) was studied In New Zealand white rabbits ex vivo according to D. Bagdy et al [Thromb. Haemost 67. 357 (1992). The compounds were dissolved in buffered isotonic saline solution and administered i.v. (0,04-5.0 mg/kg) or by infusion (0.25-5.0 mg/kg/h) or subcutaneously (0.5-6.0 mg/kg) or p.o. (2.5-20 mg/kg). The effect of the compounds was detectable already within 30 minutes following p.o. administration, peak values were attained after 60-180 minutes and the therapeutic level was maintained dose-dependently for 3→6 hours.
The in vivo effect of D-cHga Pro-Arg-H (1) is presented in detail in Tables 5 and 6. The corresponding values of C1 are listed as controls. The compound was administered p.o. in doses of 5 mg/kg. The blood samples drawn from the caudal vein in every 30-60 minutes were analyzed. The whole blood clotting time (WBCT) and the inhibition of thrombin-induced blood platelet aggregation (PAI) were determined. The activated partial thromboplastin time (APTT) and the thrombin time (TT) in the citrate plasma obtained from the blood sample were also measured. The APTT and TT values are compiled in Table 5 and the WBCT and PAI values in Table 6.

[3] = Table 2, concentration doubling clotting time, read-out: A: IC50, TT

Compound | IC50 (thrombin; [3]) | IC50 [1] | WBCT relative clotting time ([2]; 0 min) | WBCT relative clotting time ([2]; 30 min) | WBCT relative clotting time ([2]; 45 min) | WBCT relative clotting time ([2]; 60 min) | WBCT relative clotting time ([2]; 90 min) | WBCT relative clotting time ([2]; 120 min) | WBCT relative clotting time ([2]; 180 min) | WBCT relative clotting time ([2]; 240 min) | IC50 (thrombin; Table 1, concentration doubling clotting time, read-out: B: IC50, TT) | IC50 (thrombin; read-out: concentration doubling the clotting time in the TT test)
N=C(N)NCCC[C@@H](C=O)NC(=O)[C@H]1CCCN1C(=O)C(O)C1CCCCCC1.N=C(N)NCCC[C@@H](C=O)NC(=O)[C@H]1CCCN1C(=O)C(O)C1CCCCCC1.O=S(=O)(O)O (stereo partly drawn) [Compound 1, D-2-Cycloheptyl-2-hydroxyacetyl-L-prolyl-L-arginine aldehyde hemisulfate] | 0.11 µM | 0.52 µM | 1.0 | 1.80 ± 0.36 | 2.03 ± 0.35 | 1.98 ± 0.30 | 1.78 ± 0.26 | 1.52 ± 0.13 | 1.29 ± 0.07 | 1.13 ± 0.04 | – | –
CN[C@H](Cc1ccccc1)C(=O)N1CCC[C@H]1C(=O)N[C@H](C=O)CCCNC(=N)N [Compound C1, D-MePhe-Pro-Arg-H] | 0.09 µM | 0.38 µM | 1.0 | 1.07 ± 0.13 | 1.26 ± 0.07 | 1.55 ± 0.17 | 1.61 ± 0.34 | 1.45 ± 0.21 | 1.44 ± 0.08 | 1.22 ± 0.08 | 0.09 µM | 0.087 µM
